Source: ChEMBL document CHEMBL1155237, “Selective inhibitors of the mutant B-Raf pathway: discovery of a potent and orally bioavailable aminoisoquinoline” (J Med Chem, 2009)

Columns and labels:
[1] = target: Cyclin-dependent kinase-like 2 (Homo sapiens) (UniProt Q92772); assay: Inhibition of CDKL2 assessed as enzyme activity at 1 uM relative to untreated control; design: scale not given: the % may be the effect or the level left
[2] = target: Dual specificity protein kinase TTK (Homo sapiens) (UniProt P33981); assay: Inhibition of TTK assessed as enzyme activity at 1 uM relative to untreated control; design: scale not given: the % may be the effect or the level left
[3] = target: Myosin-IIIa (Homo sapiens) (UniProt Q8NEV4); assay: Inhibition of MYO3A assessed as enzyme activity at 1 uM relative to untreated control; design: scale not given: the % may be the effect or the level left
[4] = target: Tyrosine-protein kinase receptor UFO (Homo sapiens) (UniProt P30530); assay: Inhibition of AXL assessed as enzyme activity at 1 uM relative to untreated control; design: scale not given: the % may be the effect or the level left
[5] = target: Tyrosine-protein kinase ABL1 (Homo sapiens) (UniProt P00519); assay: Inhibition of ABL1 assessed as enzyme activity at 1 uM relative to untreated control; design: scale not given: the % may be the effect or the level left
[6] = target: Testis-specific serine/threonine-protein kinase 1 (Homo sapiens) (UniProt Q9BXA7); assay: Inhibition of TSSK1 assessed as enzyme activity at 1 uM relative to untreated control; design: scale not given: the % may be the effect or the level left
Sequence of Testis-specific serine/threonine-protein kinase 1 (Homo sapiens) (Q9BXA7 whole entry, canonical isoform): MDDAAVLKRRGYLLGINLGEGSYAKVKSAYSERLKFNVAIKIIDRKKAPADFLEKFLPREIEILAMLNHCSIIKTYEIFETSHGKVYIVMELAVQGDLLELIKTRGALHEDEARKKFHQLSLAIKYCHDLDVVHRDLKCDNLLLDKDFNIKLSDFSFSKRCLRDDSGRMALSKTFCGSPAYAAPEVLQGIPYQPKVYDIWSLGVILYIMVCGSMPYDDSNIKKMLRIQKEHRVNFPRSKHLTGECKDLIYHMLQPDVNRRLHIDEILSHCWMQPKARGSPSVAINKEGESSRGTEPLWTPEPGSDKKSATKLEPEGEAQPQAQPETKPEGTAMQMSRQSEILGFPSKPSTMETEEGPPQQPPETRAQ

[7] = target: Casein kinase I isoform gamma-2 (Homo sapiens) (UniProt P78368); assay: Inhibition of CSNK1G2 assessed as enzyme activity at 1 uM relative to untreated control; design: scale not given: the % may be the effect or the level left
[8] = target: Ephrin type-B receptor 3 (Homo sapiens) (UniProt P54753); assay: Inhibition of EPHB3 assessed as enzyme activity at 1 uM relative to untreated control; design: scale not given: the % may be the effect or the level left
[9] = target: Focal adhesion kinase 1 (Homo sapiens) (UniProt Q05397); assay: Inhibition of PTK2 assessed as enzyme activity at 1 uM relative to untreated control; design: scale not given: the % may be the effect or the level left
[10] = target: Serine/threonine-protein kinase Nek2 (Homo sapiens) (UniProt P51955); assay: Inhibition of NEK2 assessed as enzyme activity at 1 uM relative to untreated control; design: scale not given: the % may be the effect or the level left
[11] = target: Serine/threonine-protein kinase TAO1 (Homo sapiens) (UniProt Q7L7X3); assay: Inhibition of TAOK1 assessed as enzyme activity at 1 uM relative to untreated control; design: scale not given: the % may be the effect or the level left
[12] = target: Fibroblast growth factor receptor 1 (Homo sapiens) (UniProt P11362); assay: Inhibition of FGFR1 assessed as enzyme activity at 1 uM relative to untreated control; design: scale not given: the % may be the effect or the level left
Sequence of Fibroblast growth factor receptor 1 (Homo sapiens) (P11362 22-822 limits assumed): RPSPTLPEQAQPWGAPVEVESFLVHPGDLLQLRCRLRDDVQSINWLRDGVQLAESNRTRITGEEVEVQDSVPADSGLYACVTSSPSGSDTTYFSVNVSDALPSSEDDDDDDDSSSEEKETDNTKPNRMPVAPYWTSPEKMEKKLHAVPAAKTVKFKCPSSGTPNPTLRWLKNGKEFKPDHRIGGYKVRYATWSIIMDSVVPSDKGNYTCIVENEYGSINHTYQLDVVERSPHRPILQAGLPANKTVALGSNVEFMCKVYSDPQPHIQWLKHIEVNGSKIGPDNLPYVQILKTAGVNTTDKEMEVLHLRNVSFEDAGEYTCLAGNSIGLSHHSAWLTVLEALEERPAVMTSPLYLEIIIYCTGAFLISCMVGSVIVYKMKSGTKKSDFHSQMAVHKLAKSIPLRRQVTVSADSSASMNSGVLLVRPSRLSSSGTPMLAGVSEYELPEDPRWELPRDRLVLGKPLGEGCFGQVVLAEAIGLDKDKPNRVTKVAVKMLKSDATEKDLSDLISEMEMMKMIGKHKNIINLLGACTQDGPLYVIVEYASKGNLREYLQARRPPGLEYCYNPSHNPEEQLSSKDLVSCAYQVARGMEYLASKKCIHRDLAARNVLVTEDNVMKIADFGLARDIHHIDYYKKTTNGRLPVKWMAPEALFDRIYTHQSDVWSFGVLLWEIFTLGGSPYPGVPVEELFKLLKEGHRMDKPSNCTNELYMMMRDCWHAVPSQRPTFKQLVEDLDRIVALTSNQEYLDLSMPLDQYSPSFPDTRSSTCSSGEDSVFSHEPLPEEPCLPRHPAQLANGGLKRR

[13] = target: Tyrosine-protein kinase receptor Tie-1 (Homo sapiens) (UniProt P35590); assay: Inhibition of TIE1 assessed as enzyme activity at 1 uM relative to untreated control; design: scale not given: the % may be the effect or the level left
Sequence of Tyrosine-protein kinase receptor Tie-1 (Homo sapiens) (P35590 whole entry): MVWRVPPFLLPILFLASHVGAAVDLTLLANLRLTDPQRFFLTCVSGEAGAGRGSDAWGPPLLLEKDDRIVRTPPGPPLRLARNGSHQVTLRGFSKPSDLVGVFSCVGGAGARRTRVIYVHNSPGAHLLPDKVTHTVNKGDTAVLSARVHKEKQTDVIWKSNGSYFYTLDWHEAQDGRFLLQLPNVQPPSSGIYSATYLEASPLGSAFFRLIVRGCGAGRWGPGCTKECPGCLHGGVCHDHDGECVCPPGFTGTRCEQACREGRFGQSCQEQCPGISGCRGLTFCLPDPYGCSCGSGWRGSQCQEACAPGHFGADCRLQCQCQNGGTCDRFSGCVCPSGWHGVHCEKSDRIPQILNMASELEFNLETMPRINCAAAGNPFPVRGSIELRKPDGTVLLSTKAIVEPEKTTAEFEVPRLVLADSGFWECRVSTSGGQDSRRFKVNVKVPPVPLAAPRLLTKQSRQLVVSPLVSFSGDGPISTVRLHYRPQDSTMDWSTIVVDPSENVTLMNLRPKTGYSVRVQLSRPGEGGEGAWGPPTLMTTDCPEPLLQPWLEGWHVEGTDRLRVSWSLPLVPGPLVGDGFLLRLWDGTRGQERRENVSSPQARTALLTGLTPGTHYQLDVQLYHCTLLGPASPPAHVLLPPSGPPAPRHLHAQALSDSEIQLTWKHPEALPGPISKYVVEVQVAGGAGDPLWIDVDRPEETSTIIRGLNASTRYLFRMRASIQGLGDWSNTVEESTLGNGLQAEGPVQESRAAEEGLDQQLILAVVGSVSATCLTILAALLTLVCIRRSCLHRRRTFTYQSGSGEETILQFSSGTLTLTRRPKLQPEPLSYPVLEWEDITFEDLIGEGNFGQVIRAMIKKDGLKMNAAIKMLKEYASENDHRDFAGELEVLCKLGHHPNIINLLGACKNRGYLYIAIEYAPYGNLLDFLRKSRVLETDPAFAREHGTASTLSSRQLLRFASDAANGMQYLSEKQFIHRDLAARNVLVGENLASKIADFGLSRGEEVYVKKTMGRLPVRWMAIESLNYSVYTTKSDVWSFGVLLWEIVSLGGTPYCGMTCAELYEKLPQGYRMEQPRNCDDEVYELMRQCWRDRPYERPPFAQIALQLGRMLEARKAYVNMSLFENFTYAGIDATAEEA

[14] = target: Mitogen-activated protein kinase 14 (Homo sapiens, UniProt Q16539); assay: Inhibition of p38alpha
A-375 = assay: Antitumor activity against human A375 SQ2 cells xenografted in CD1 mouse assessed as inhibition of tumor growth at 2 mg/kg, po qd for 14 days; format: functional; details: A375-SQ2, 336 h
[15] = target: Serine/threonine-protein kinase pim-3 (Homo sapiens) (UniProt Q86V86); assay: Inhibition of PIM3 assessed as enzyme activity at 1 uM relative to untreated control; design: scale not given: the % may be the effect or the level left
[16] = target: ALK tyrosine kinase receptor (Homo sapiens) (UniProt Q9UM73); assay: Inhibition of ALK assessed as enzyme activity at 1 uM relative to untreated control; design: scale not given: the % may be the effect or the level left
Sequence of ALK tyrosine kinase receptor (Homo sapiens) (Q9UM73 19-1620 limits assumed): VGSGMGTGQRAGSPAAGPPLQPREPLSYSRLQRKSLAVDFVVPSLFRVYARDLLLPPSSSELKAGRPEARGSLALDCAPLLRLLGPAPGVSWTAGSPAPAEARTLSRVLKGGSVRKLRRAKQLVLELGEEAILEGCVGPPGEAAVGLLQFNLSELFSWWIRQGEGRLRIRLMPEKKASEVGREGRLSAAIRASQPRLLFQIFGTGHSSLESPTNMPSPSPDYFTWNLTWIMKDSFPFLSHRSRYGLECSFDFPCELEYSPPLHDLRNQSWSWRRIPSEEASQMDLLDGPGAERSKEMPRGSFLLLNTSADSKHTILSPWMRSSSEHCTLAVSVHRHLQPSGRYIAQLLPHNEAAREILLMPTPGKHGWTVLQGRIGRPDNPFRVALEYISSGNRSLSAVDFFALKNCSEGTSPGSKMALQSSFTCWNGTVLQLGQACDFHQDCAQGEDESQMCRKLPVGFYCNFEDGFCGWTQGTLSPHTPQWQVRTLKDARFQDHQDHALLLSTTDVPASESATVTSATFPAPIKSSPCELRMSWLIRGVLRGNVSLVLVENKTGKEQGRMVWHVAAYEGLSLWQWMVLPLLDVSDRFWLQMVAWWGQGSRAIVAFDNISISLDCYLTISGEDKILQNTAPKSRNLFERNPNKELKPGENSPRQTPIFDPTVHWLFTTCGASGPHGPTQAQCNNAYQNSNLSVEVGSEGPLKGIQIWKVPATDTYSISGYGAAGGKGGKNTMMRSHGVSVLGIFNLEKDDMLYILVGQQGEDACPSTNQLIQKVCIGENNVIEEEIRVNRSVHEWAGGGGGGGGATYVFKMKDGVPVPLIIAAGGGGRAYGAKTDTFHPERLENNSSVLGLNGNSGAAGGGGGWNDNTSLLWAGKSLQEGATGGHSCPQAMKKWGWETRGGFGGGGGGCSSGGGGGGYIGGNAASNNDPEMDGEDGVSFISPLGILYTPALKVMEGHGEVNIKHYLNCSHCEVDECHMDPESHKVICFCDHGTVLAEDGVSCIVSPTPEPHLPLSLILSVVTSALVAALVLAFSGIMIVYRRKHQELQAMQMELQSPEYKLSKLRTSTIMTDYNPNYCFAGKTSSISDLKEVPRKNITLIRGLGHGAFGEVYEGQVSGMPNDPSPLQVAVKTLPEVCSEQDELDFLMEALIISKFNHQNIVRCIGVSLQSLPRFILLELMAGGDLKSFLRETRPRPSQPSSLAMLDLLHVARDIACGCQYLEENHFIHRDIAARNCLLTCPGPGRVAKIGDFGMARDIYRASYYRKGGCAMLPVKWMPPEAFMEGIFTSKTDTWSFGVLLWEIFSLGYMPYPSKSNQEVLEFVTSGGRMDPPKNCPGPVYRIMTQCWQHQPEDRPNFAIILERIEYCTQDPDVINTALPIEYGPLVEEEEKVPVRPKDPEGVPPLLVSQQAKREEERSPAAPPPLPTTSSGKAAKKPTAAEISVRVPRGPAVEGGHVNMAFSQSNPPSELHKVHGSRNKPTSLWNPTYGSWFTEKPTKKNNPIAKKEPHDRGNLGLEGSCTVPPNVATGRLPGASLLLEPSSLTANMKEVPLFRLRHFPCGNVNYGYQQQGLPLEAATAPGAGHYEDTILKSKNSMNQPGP

[17] = target: Serine/threonine-protein kinase PAK 6 (Homo sapiens) (UniProt Q9NQU5); assay: Inhibition of PAK6 assessed as enzyme activity at 1 uM relative to untreated control; design: scale not given: the % may be the effect or the level left
[18] = target: Protein-tyrosine kinase 6 (Homo sapiens) (UniProt Q13882); assay: Inhibition of PTK6 assessed as enzyme activity at 1 uM relative to untreated control; design: scale not given: the % may be the effect or the level left
[19] = target: Death-associated protein kinase 3 (Homo sapiens) (UniProt O43293); assay: Inhibition of DAPK3 assessed as enzyme activity at 1 uM relative to untreated control; design: scale not given: the % may be the effect or the level left
Sequence of Death-associated protein kinase 3 (Homo sapiens) (O43293 whole entry, looked up): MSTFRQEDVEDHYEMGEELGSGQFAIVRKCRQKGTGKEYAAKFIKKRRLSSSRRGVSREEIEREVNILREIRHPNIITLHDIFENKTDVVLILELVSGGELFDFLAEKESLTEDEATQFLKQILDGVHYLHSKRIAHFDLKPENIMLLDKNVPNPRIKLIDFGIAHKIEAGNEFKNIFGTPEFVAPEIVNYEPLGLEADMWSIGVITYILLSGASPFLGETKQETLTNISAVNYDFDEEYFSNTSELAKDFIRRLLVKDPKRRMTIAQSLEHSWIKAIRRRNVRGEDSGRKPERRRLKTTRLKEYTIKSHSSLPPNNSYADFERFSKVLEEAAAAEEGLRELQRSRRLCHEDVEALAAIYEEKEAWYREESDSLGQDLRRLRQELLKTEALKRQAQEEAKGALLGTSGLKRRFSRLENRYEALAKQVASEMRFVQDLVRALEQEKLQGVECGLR

[20] = target: Cyclin-dependent kinase 18 (Homo sapiens) (UniProt Q07002); assay: Inhibition of PCTK3 assessed as enzyme activity at 1 uM relative to untreated control; design: scale not given: the % may be the effect or the level left
[21] = target: Serine/threonine-protein kinase Nek6 (Homo sapiens) (UniProt Q9HC98); assay: Inhibition of NEK6 assessed as enzyme activity at 1 uM relative to untreated control; design: scale not given: the % may be the effect or the level left
[22] = target: Activin receptor type-1-like (Homo sapiens) (UniProt P37023); assay: Inhibition of ACVRL1 assessed as enzyme activity at 1 uM relative to untreated control; design: scale not given: the % may be the effect or the level left
[23] = target: Ephrin type-A receptor 6 (Homo sapiens) (UniProt Q9UF33); assay: Inhibition of EPHA6 assessed as enzyme activity at 1 uM relative to untreated control; design: scale not given: the % may be the effect or the level left
[24] = target: Ephrin type-B receptor 1 (Homo sapiens) (UniProt P54762); assay: Inhibition of EPHB1 assessed as enzyme activity at 1 uM relative to untreated control; design: scale not given: the % may be the effect or the level left
[25] = target: Tyrosine-protein kinase Yes (Homo sapiens) (UniProt P07947); assay: Inhibition of YES assessed as enzyme activity at 1 uM relative to untreated control; design: scale not given: the % may be the effect or the level left
Sequence of Tyrosine-protein kinase Yes (Homo sapiens) (P07947 2-543 limits assumed): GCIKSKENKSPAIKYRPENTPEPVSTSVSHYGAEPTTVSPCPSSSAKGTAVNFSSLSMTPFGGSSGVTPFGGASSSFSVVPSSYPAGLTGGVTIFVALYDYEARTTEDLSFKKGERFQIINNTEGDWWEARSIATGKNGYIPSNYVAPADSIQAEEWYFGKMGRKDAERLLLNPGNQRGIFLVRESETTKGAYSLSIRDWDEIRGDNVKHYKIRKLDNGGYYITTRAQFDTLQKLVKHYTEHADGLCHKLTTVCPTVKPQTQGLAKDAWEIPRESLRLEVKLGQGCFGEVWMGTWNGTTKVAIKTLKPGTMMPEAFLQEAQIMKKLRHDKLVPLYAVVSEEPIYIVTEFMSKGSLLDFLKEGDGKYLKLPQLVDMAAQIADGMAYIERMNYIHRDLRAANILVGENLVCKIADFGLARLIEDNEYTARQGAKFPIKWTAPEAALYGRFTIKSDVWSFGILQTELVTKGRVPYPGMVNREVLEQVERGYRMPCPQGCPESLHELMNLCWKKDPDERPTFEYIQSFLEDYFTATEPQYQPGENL

[26] = target: Ephrin type-A receptor 3 (Homo sapiens) (UniProt P29320); assay: Inhibition of EPHA3 assessed as enzyme activity at 1 uM relative to untreated control; design: scale not given: the % may be the effect or the level left
[27] = target: Serine/threonine-protein kinase N1 (Homo sapiens) (UniProt Q16512); assay: Inhibition of PKN1 assessed as enzyme activity at 1 uM relative to untreated control; design: scale not given: the % may be the effect or the level left
[28] = target: Dual specificity protein kinase CLK4 (Homo sapiens) (UniProt Q9HAZ1); assay: Inhibition of CLK4 assessed as enzyme activity at 1 uM relative to untreated control; design: scale not given: the % may be the effect or the level left
[29] = target: Serine/threonine-protein kinase N2 (Homo sapiens) (UniProt Q16513); assay: Inhibition of PKN2 assessed as enzyme activity at 1 uM relative to untreated control; design: scale not given: the % may be the effect or the level left
[30] = target: Serine/threonine-protein kinase MRCK alpha (Homo sapiens) (UniProt Q5VT25); assay: Inhibition of MRCKA assessed as enzyme activity at 1 uM relative to untreated control; design: scale not given: the % may be the effect or the level left
[31] = tested on: Receptor-type tyrosine-protein kinase FLT3 (Homo sapiens), P36888 [D835H]; assay: Inhibition of FLT3 D835H mutant assessed as enzyme activity at 1 uM relative to untreated control; design: scale not given: the % may be the effect or the level left
[32] = target: Mitogen-activated protein kinase kinase kinase 4 (Homo sapiens) (UniProt Q9Y6R4); assay: Inhibition of MAP3K4 assessed as enzyme activity at 1 uM relative to untreated control; design: scale not given: the % may be the effect or the level left
[33] = target: Casein kinase I isoform delta (Homo sapiens) (UniProt P48730); assay: Inhibition of CSNK1D assessed as enzyme activity at 1 uM relative to untreated control; design: scale not given: the % may be the effect or the level left
[34] = target: Ribosomal protein S6 kinase alpha-5 (Homo sapiens) (UniProt O75582); assay: Inhibition of RPS6KA5 kinase domain 2 assessed as enzyme activity at 1 uM relative to untreated control; design: scale not given: the % may be the effect or the level left
[35] = tested on: Epidermal growth factor receptor (Homo sapiens), P00533 [UNDEFINED MUTATION]; assay: Inhibition of EGFR L747-S752del, P753S mutant assessed as enzyme activity at 1 uM relative to untreated control; format: protein assay; design: scale not given: the % may be the effect or the level left
[36] = target: Cyclin-dependent kinase 2 (Homo sapiens) (UniProt P24941); assay: Inhibition of CDK2 assessed as enzyme activity at 1 uM relative to untreated control; design: scale not given: the % may be the effect or the level left
[37] = tested on: Tyrosine-protein kinase ABL1 (Homo sapiens), P00519 [T315I]; assay: Inhibition of ABL1 T315I mutant assessed as enzyme activity at 1 uM relative to untreated control; design: scale not given: the % may be the effect or the level left

Cc1ccc2c(Nc3ccc(Cl)cc3)nccc2c1Nc1ncccc1-c1ncnc2[nH]cnc12.Cl.Cl.Cl
Activity [1]: 100%
Activity [2]: 100%
Activity [3]: 99%
Activity [4]: 95%
Activity [5]: 51%
Activity [6]: 71%
Activity [7]: 100%
Activity [8]: 10%
Activity [9]: 93%
Activity [10]: 90%
Activity [11]: 88%
Activity [12]: 80%
Activity [13]: 4.9%
IC50 [14]: > 1600 nM
inhibition in vivo at 2 mg/kg (A-375): 90%
Activity [15]: 100%
Activity [16]: 96%
Activity [17]: 100%
Activity [18]: 13%
Activity [19]: 100%
Activity [20]: 95%
Activity [21]: 100%
Activity [22]: 92%
Activity [23]: 2.8%
Activity [24]: 2%
Activity [25]: 52%
Activity [26]: 74%
Activity [27]: 100%
Activity [28]: 100%
Activity [29]: 86%
Activity [30]: 87%
Activity [31]: 99%
Activity [32]: 100%
Activity [33]: 99%
Activity [34]: 100%
Activity [35]: 94%
Activity [36]: 100%
Activity [37]: 72%
